Experiments:
[1] = test system: db|db mouse; test: Blood glucose of db|db mouse in diabetic nephropathy; assay type: in vivo; settings: for Blood glucose value: db|db mouse; for blood glucose of db|db mouse: final phase of administration, vs model group, P<0.05
Procedure: (§1) During the experiment, all the mouse are bred in lamina flow cage, free to food and water. Water and underpad are changed every day to keep the cage clean, and the water, seedstuff, underpad are stationary. […] All the appliances and food are sterilized everyday. […] Moreover, 10 8-week-old B6 mouse are taken as the normal control. Each group is given 0.4 ml corresponding drug in different concertration or physiological saline by intragastric administration for 5 weeks. Determinate the food-intake and water-intake, weigh every week, determinate the blood glucose every week.

[2] = test system: db|db mouse; test: Weight of db|db mouse of diabetic nephropathy; assay type: in vivo; settings: for Weight: db|db mouse; for weight of db|db mouse: vs model group, P<0.05, intragastric
Procedure: as §1

[3] = test system: db|db mouse; test: Kidney weight and kidney index of db|db mouse in diabetic nephropathy; assay type: in vivo; settings: after 5 weeks; for Kidned index: kidney weight/body weight×1000
Procedure: as §1

[4] = test system: Rat messangial cell cell line HBZY-1; test: Hypertrophy of rat mesangial cells cultured under high glucose (HE staining); assay type: cell-based; settings: high glucose 25 mmol/L, 48 h, extract 0.1 g/L, compounds 1, 0.1, 0.01 μmol/L, co-use 0.06:0.03, 0.05:0.05, 0.03:0.06 μmol/L
Procedure: (§2) Take the rat mesangial cells in log phase growth, prepare into unicell suspension (5×10^4 cells/ml) with 5% DMEM medium of newborn calf serum, inoculate to the 24 well plate coated with coverslip for 1 ml/well (cell quantity: 5×10^4/well), incubated under 5% CO2 incubator at 37° C. for 24 hours, added the DMEM medium without serum, incubated 24 hours to make all the cells to anestrum. Discard the supernatant, added 900 μl DMEM medium and 100 μl different concentration amylaceum (each concentration for 3 repeat) and incubated 24 h, 48 h, 72 h and 96 h, respectively. Observed the modeling results after staining with HE and PAS. […] Put the coverslips pre-treatment by poly-L-lysine into 24-well cell culture plates before added the unicell suspension, then cultured these cells until the step of synchronization. […] Each group repeats for 3 times. Then, all the groups are incubated under 5% CO2 incubator at 37° C. for 48 h. After that, take out of the coverslips for HE staining, PAS staining and immunocytochemistry staining Routine HE Staining, Routine PAS Staining, CTGF Staining

[5] = test system: db|db mouse; test: Urine volume, urine total protein and urine creatinine in 24 hours of db|db mouse in diabetic nephropathy; assay type: in vivo; settings: for Total protein / Urine creatinine / Urine volume: 24 hour urine after 5 weeks; for urine creatinine in 24 hours / urine total protein in 24 hours / urine volume in 24 hours: vs model group
Procedure: as §1

[6] = test system: Rat messangial cell cell line HBZY-1; test: Extracellular matrix accrementition of rat mesangial cells cultured under high glucose (PAS staining); assay type: cell-based; settings: high glucose 25 mmol/L, 48 h, extract 0.1 g/L, compounds 1, 0.1, 0.01 μmol/L, co-use 0.06:0.03, 0.05:0.05, 0.03:0.06 μmol/L
Procedure: as §2

[7] = test system: CTGF; test: CTGF express of rat mesangial cells cultured under high glucose (immunocytochemistry); assay type: cell-based; settings: high glucose 25 mmol/L, 48 h, CTGF staining; extract 0.1 g/L, compounds 1, 0.1, 0.01 μmol/L, co-use 0.06:0.03, 0.05:0.05, 0.03:0.06 μmol/L
Procedure: as §2, with “Routine HE Staining, Routine PAS Staining, CTGF Staining” left out

[8] = 2 weeks, 0.5 mg/kg intragastric
[9] = 2 weeks, 1.0 mg/kg intragastric
[10] = 2 weeks, 2.0 mg/kg intragastric
[11] = 3 weeks, 0.5 mg/kg intragastric
[12] = 3 weeks, 1.0 mg/kg intragastric
[13] = 3 weeks, 2.0 mg/kg intragastric
[14] = 4 weeks, 0.5 mg/kg intragastric
[15] = 4 weeks, 1.0 mg/kg intragastric
[16] = 4 weeks, 2.0 mg/kg intragastric
[17] = 5 weeks, 0.5 mg/kg intragastric
[18] = 5 weeks, 1.0 mg/kg intragastric
[19] = 5 weeks, 2.0 mg/kg intragastric

## COc1cc2ccc(=O)oc2cc1O [7-hydroxy-6-methoxycomarin, 7-hydroxy-6-methoxycoumarin]
[1]; 1 week, 0.5 mg/kg intragastric
  Blood glucose value: 13.3 ± 4.5 mmol/L
[1]; 1 week, 1.0 mg/kg intragastric
  Blood glucose value: 13.5 ± 4.0 mmol/L
[1]; 1 week, 2.0 mg/kg intragastric
  Blood glucose value: 13.8 ± 4.7 mmol/L
[1]; [8]
  Blood glucose value: 13.4 ± 2.7 mmol/L
[1]; [9]
  Blood glucose value: 13.0 ± 3.2 mmol/L
[1]; [10]
  Blood glucose value: 13.3 ± 2.7 mmol/L
[1]; [11]
  Blood glucose value: 13.5 ± 3.2 mmol/L
[1]; [12]
  Blood glucose value: 12.6 ± 4.8 mmol/L
[1]; [13]
  Blood glucose value: 13.1 ± 4.7 mmol/L
[1]; [14]
  Blood glucose value: 12.1 ± 3.6 mmol/L
[1]; [15]
  Blood glucose value: 10.8 ± 2.5 mmol/L
[1]; [16]
  Blood glucose value: 10.4 ± 3.9 mmol/L
[1]; [17]
  Blood glucose value: 13.0 ± 2.2 mmol/L
[1]; [18]
  Blood glucose value: 10.4 ± 2.5 mmol/L
[1]; [19]
  Blood glucose value: 11.3 ± 4.4 mmol/L
[1]
  blood glucose of db|db mouse: remarkably decrease the blood glucose
[2]; 0 week, 0.5 mg/kg intragastric
  Weight: 23.2 ± 0.6 g
[2]; 0 week, 1.0 mg/kg intragastric
  Weight: 24.1 ± 0.5 g
[2]; 0 week, 2.0 mg/kg intragastric
  Weight: 23.9 ± 0.5 g
[2]; 1 week, 0.5 mg/kg intragastric
  Weight: 30.6 ± 1.2 g
[2]; 1 week, 1.0 mg/kg intragastric
  Weight: 31.8 ± 1.0 g
[2]; 1 week, 2.0 mg/kg intragastric
  Weight: 32.0 ± 1.3 g
[2]; [8]
  Weight: 36.4 ± 1.5 g
[2]; [9]
  Weight: 33.7 ± 1.4 g
[2]; [10]
  Weight: 34.3 ± 1.9 g
[2]; [11]
  Weight: 40.1 ± 2.5 g
[2]; [12]
  Weight: 38.8 ± 1.4 g
[2]; [13]
  Weight: 39.5 ± 1.8 g
[2]; [14]
  Weight: 43.0 ± 2.1 g
[2]; [15]
  Weight: 42.5 ± 2.5 g
[2]; [16]
  Weight: 44.0 ± 3.2 g
[2]; [17]
  Weight: 47.0 ± 3.9 g
[2]; [18]
  Weight: 45.8 ± 3.0 g
[2]; [19]
  Weight: 45.7 ± 4.5 g
[2]; 5 weeks
  weight of db|db mouse: restrain the weight
[3]
  kidney index: obviously decrease
  kidney weight: obviously decrease
[3]; 0.5 mg/kg intragastric
  Kidned weight: 0.29 ± 0.02 g
  Kidned index: 12.6 ± 1.0 ‰
[3]; 1.0 mg/kg intragastric
  Kidned weight: 0.25 ± 0.03 g
[3]; 2.0 mg/kg intragastric
  Kidned weight: 0.24 ± 0.04 g
  Kidned index: 9.1 ± 1.7 ‰
[4]
  hypertrophy of rat mesangial cells induced by high glucose: restrain significantly the hypertrophy
[5]; 0.5 mg/kg intragastric
  Total protein: 1.398 ± 0.372 mg
  Urine creatinine: 1.85 ± 0.56 mmol/L
  Urine volume: 0.95 ± 0.34 mL
[5]; 1.0 mg/kg intragastric
  Total protein: 1.102 ± 0.249 mg
  Urine creatinine: 3.20 ± 0.85 mmol/L
  Urine volume: 0.75 ± 0.25 mL
[5]; 2.0 mg/kg intragastric
  Total protein: 0.878 ± 0.352 mg
  Urine creatinine: 2.81 ± 0.76 mmol/L
  Urine volume: 0.78 ± 0.31 mL
[5]
  urine creatinine in 24 hours: elevate the urine creatinine
  urine total protein in 24 hours: decrease
  urine volume in 24 hours: decrease the urine volume
[6]
  extracellular matrix of rat mesangial cells induced by high glucose: decrease the extracellular matrix
[7]
  CTGF express of rat mesangial cells induced by high glucose: decrease the CTGF express

## O=c1ccc2ccc(O)cc2o1 [7-hydroxycoumarin]
[1]; 1 week, 0.5 mg/kg intragastric
  Blood glucose value: 13.7 ± 4.1 mmol/L
[1]; 1 week, 1.0 mg/kg intragastric
  Blood glucose value: 13.4 ± 4.6 mmol/L
[1]; 1 week, 2.0 mg/kg intragastric
  Blood glucose value: 13.0 ± 3.6 mmol/L
[1]; [8]
  Blood glucose value: 13.6 ± 2.9 mmol/L
[1]; [9]
  Blood glucose value: 13.4 ± 2.6 mmol/L
[1]; [10]
  Blood glucose value: 13.1 ± 5.1 mmol/L
[1]; [11]
  Blood glucose value: 12.9 ± 2.9 mmol/L
[1]; [12]
  Blood glucose value: 13.9 ± 4.3 mmol/L
[1]; [13]
  Blood glucose value: 13.7 ± 5.1 mmol/L
[1]; [14]
  Blood glucose value: 11.2 ± 4.0 mmol/L
[1]; [15]
  Blood glucose value: 11.2 ± 4.4 mmol/L
[1]; [16]
  Blood glucose value: 10.1 ± 2.4 mmol/L
[1]; [17]
  Blood glucose value: 12.1 ± 1.9 mmol/L
[1]; [18]
  Blood glucose value: 10.3 ± 2.0 mmol/L
[1]; [19]
  Blood glucose value: 10.6 ± 3.0 mmol/L
[1]
  blood glucose of db|db mouse: remarkably decrease the blood glucose
[2]; 0 week, 0.5 mg/kg intragastric
  Weight: 24.5 ± 0.5 g
[2]; 0 week, 1.0 mg/kg intragastric
  Weight: 23.4 ± 0.5 g
[2]; 0 week, 2.0 mg/kg intragastric
  Weight: 23.7 ± 0.6 g
[2]; 1 week, 0.5 mg/kg intragastric
  Weight: 31.5 ± 1.5 g
[2]; 1 week, 1.0 mg/kg intragastric
  Weight: 30.2 ± 1.4 g
[2]; 1 week, 2.0 mg/kg intragastric
  Weight: 30.3 ± 0.5 g
[2]; [8]
  Weight: 35.8 ± 1.8 g
[2]; [9]
  Weight: 34.6 ± 1.4 g
[2]; [10]
  Weight: 35.5 ± 1.7 g
[2]; [11]
  Weight: 39.4 ± 2.0 g
[2]; [12]
  Weight: 40.0 ± 2.7 g
[2]; [13]
  Weight: 38.6 ± 1.9 g
[2]; [14]
  Weight: 43.9 ± 3.1 g
[2]; [15]
  Weight: 43.1 ± 2.8 g
[2]; [16]
  Weight: 42.3 ± 2.8 g
[2]; [17]
  Weight: 46.4 ± 4.6 g
[2]; [18]
  Weight: 45.2 ± 4.1 g
[2]; [19]
  Weight: 46.1 ± 5.3 g
[2]; 5 weeks
  weight of db|db mouse: restrain the weight
[3]
  kidney index: obviously decrease
  kidney weight: obviously decrease
[3]; 0.5 mg/kg intragastric
  Kidned weight: 0.28 ± 0.04 g
  Kidned index: 11.8 ± 1.5 ‰
[3]; 1.0 mg/kg intragastric
  Kidned weight: 0.26 ± 0.03 g
[3]; 2.0 mg/kg intragastric
  Kidned weight: 0.27 ± 0.02 g
  Kidned index: 9.4 ± 0.3 ‰
[4]
  hypertrophy of rat mesangial cells induced by high glucose: restrain significantly the hypertrophy
[5]; 0.5 mg/kg intragastric
  Total protein: 1.205 ± 0.541 mg
  Urine creatinine: 2.06 ± 0.65 mmol/L
  Urine volume: 1.03 ± 0.28 mL
[5]; 1.0 mg/kg intragastric
  Total protein: 0.996 ± 0.338 mg
  Urine creatinine: 2.30 ± 0.71 mmol/L
  Urine volume: 0.72 ± 0.30 mL
[5]; 2.0 mg/kg intragastric
  Total protein: 1.147 ± 0.305 mg
  Urine creatinine: 2.79 ± 0.54 mmol/L
  Urine volume: 0.74 ± 0.33 mL
[5]
  urine creatinine in 24 hours: elevate the urine creatinine
  urine total protein in 24 hours: decrease
  urine volume in 24 hours: decrease the urine volume
[6]
  extracellular matrix of rat mesangial cells induced by high glucose: decrease the extracellular matrix
[7]
  CTGF express of rat mesangial cells induced by high glucose: decrease the CTGF express
